For the assay, the target named is hGYS1 enzyme (recombinant hGYS1/GN1 protein) (Homo sapiens (Human), UniProt P13807). Briefly: GYS1 coupled enzyme assay (PK/LDH). The class given is biochemical. The note with it: hGYS1/GN1 50 nM, UDP-Glucose 0.8 mM, G6P 1 mM; geometric mean of at least 2 runs. The source says:
The GYS1 coupled enzyme assay is a kinetic biochemical assay that indirectly quantifies the rate of glycogen synthesis by coupling the conversion of GYS1 substrate UDP-glucose into UDP with downstream enzymatic reactions. UDP is released from UDP-glucose as glucose monomers are linked into the growing glycogen strand by GYS1. The coupled assay then proceeds with pyruvate kinase utilizing UDP and phospho(enol)pyruvate (PEP) to form pyruvate. Lactate dehydrogenase then converts pyruvate and NADH into lactate and NAD+. Oxidation of NADH to NAD+ can be measured continuously with a plate reader by quantifying the decrease in NADH absorbance at 340 nm over time.
Compounds that inhibit the hGYS1 enzyme and, subsequently, the downstream conversion of NADH to NAD+, were tested using assay ready plates (black, clear bottom 384 well plates) in a final DMSO reaction volume of 2.5% DMSO. The Assay Buffer contained 50 mM Tris pH 7.5, 2 mM MgCl2, and 100 mM KCl. Fresh stocks of BSA at a final concentration of 0.02% and TCEP at 1 mM were added before splitting buffer into hGYS1 buffer and substrate buffer. To the hGYS1 buffer, rabbit liver glycogen was added at a final concentration of 0.2% glycogen. Glucose-6-Phosphate was added at 1 mM, recombinant hGYS1/GN1 protein was added at 50 nM to the substrate buffer, phosphoenolpyruvate (PEP) was added at 2 mM, UDP-Glucose was added at 0.8 mM, NADH) was added at 0.6 mM, and Pyruvate Kinase/Lactate Dehydrogenase was added at 20 units/mL. The reaction was initiated by mixing hGYS1 buffer and substrate buffer at a 1:1 ratio. Both buffers were plated using a liquid dispensing device with hGYS1 buffer plated first followed by the substrate buffer. Plates were spun briefly to eliminate air bubbles and are immediately read in continuous mode at an absorbance of 340 nm, for 10 time points in one-minute increments, for a total of 10 minutes. The slope from these 10 time points was normalized to the positive and negative control wells. The duplicate % inhibition values are then averaged and fit to a Hill equation for dose response according to the Levenberg-Marquardt algorithm with the Hill equation maximum set to 100 and the minimum set to 0.
Unless otherwise specified, IC50 values are reported as the geometric mean of at least 2 assay runs on separate days. Each run represents the average of a technical replicate, where each compound was assayed twice in the same plate. […] A superscript “#” symbol in Table 2 indicates results from a single assay run.
hGYS1 enzyme (recombinant hGYS1/GN1 protein), sequence (P13807 whole entry): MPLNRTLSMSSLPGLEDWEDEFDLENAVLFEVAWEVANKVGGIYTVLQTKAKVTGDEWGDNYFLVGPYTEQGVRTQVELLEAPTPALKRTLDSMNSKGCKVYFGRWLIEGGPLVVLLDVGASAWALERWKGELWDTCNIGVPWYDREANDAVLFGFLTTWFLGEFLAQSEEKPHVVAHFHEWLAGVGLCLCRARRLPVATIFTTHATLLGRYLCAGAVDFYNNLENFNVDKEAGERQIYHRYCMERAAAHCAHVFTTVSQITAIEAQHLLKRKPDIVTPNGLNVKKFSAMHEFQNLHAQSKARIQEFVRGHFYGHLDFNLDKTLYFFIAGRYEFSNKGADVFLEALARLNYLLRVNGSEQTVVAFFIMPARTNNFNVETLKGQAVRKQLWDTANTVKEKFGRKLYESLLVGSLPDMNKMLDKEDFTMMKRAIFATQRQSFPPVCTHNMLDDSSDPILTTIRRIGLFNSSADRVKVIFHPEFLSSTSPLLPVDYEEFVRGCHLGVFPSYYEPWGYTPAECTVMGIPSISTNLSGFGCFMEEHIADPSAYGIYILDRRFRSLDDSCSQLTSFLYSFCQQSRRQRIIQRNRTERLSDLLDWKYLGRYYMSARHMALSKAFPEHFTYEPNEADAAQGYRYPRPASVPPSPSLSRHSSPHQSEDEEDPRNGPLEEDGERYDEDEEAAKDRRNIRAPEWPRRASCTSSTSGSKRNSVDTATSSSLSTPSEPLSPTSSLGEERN
hGYS1 enzyme (recombinant hGYS1/GN1 protein), sequence (P46976 whole entry partner): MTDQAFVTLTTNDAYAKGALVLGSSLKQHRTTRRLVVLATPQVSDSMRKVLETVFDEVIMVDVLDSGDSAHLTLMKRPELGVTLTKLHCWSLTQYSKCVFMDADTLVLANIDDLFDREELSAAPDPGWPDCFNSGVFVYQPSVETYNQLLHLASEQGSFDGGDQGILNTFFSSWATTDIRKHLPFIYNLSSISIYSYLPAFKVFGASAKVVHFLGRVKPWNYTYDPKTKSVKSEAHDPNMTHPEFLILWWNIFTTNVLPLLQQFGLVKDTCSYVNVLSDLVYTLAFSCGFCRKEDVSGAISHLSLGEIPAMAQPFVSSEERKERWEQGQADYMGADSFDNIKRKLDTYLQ
Usually IC50 stands for the point on the concentration scale where inhibition reaches its midpoint. Take `CC(=O)N1[C@H](C)CC[C@H]1C(=O)N[C@@H](c1ccccc1)c1ccc(C(C)C)cc1` [Compound 215, (2S,5R)-1-acetyl-5-methyl-N-[(S)-phenyl[4-(propan-2-yl)phenyl]methyl]pyrrolidine-2-carboxamide]: the 50% inhibitory concentration (IC50) worked out at 3770 nM.
`Cc1cc(CC(=O)N2C[C@H](F)C[C@H]2C(=O)N[C@@H](c2ccccc2)c2ccc(C(C)C)cc2)[nH]n1` [Compound 54, (2S,4R)-4-fluoro-1-[2-(3-methyl-1H-pyrazol-5-yl)acetyl]-N-[(S)-phenyl[4-(propan-2-yl)phenyl]methyl]pyrrolidine-2-carboxamide]: the IC50 amounted to 47 nM.
As for `CC(C)c1ccc([C@@H](NC(=O)[C@@H]2C[C@@H](F)CN2C(=O)C(C)(C)c2ccccn2)c2ccccc2)cc1` [Compound 92, (2S,4R)-4-fluoro-1-[2-methyl-2-(pyridin-2-yl)propanoyl]-N-[(S)-phenyl[4-(propan-2-yl)phenyl]methyl]pyrrolidine-2-carboxamide], the figure is 439 nM; as for `CC(C)c1ccc(C(NC(=O)[C@@H]2C[C@@H](F)CN2C(=O)Cc2cnn[nH]2)c2ccc(F)cn2)cc1F` (single isomer, unassigned) [Compound 616, (2S,4R)-4-fluoro-N-[(R) or (S)-[3-fluoro-4-(propan-2-yl)phenyl](5-fluoropyridin-2-yl)methyl]-1-[2-(1H-1,2,3-triazol-5-yl)acetyl]pyrrolidine-2-carboxamide], 1320 nM.
The figure for `CC(Cn1ccnc1)C(=O)N1C[C@H](F)C[C@H]1C(=O)N[C@@H](c1ccccc1)c1ccc(C(C)C)cc1` (stereo partly drawn) [Compound 79, (2S,4R)-4-fluoro-1-[3-(1H-imidazol-1-yl)-2-methylpropanoyl]-N-[(S)-phenyl[4-(propan-2-yl)phenyl]methyl]pyrrolidine-2-carboxamide] is 313 nM; for `CC(C)c1ccc([C@@H](NC(=O)[C@@H]2C[C@@H](F)CN2C(=O)C(O)CO)c2ccccc2)cc1` (stereo partly drawn) [Compound 186, (2S,4R)-1-(2,3-dihydroxypropanoyl)-4-fluoro-N-[(S)-phenyl[4-(propan-2-yl)phenyl]methyl]pyrrolidine-2-carboxamide] it is 97 nM; for `NCc1nnc(CC(=O)N2C[C@H](F)C[C@H]2C(=O)N[C@@H](c2ccccc2)c2ccc(C3CC3)c(F)c2)o1` [Compound 489, (2S,4R)-1-{2-[5-(aminomethyl)-1,3,4-oxadiazol-2-yl]acetyl}-N-[(S)-(4-cyclopropyl-3-fluorophenyl)(phenyl)methyl]-4-fluoropyrrolidine-2-carboxamide] it is 353 nM.
As for `CC(C)c1c(F)cc(C(NC(=O)[C@@H]2C[C@@H](F)CN2C(=O)Cc2cnn[nH]2)c2ccccc2)cc1F` (single isomer, unassigned) [Compound 666, (2S,4R)-N-[(R) or (S)-[3,5-difluoro-4-(propan-2-yl)phenyl](phenyl)methyl]-4-fluoro-1-[2-(1H-1,2,3-triazol-5-yl)acetyl]pyrrolidine-2-carboxamide], the figure is 2270 nM.
For the molecule `CC(=O)N1C[C@@H]2CC[C@H]1C(C(=O)N1C[C@H](F)C[C@H]1C(=O)N[C@@H](c1ccccc1)c1ccc(C(C)C)cc1)C2` (stereo partly drawn) [Compound 176, (2S,4R)-1-[(1S,4R)-2-acetyl-2-azabicyclo[2.2.2]octane-6-carbonyl]-4-fluoro-N-[(S)-phenyl[4-(propan-2-yl)phenyl]methyl]pyrrolidine-2-carboxamide], the IC50 came to 410 nM.
The figure for `CC(=O)N1CCC[C@H]1C(=O)NC(c1ccc(C(C)C)cn1)c1ccccc1C` (single isomer, unassigned) [Compound 641, (2S)-1-acetyl-N-[(S) or (R)-(2-methylphenyl)[5-(propan-2-yl)pyridin-2-yl]methyl]pyrrolidine-2-carboxamide] is 2950 nM; for `Cc1cn(CC(=O)N2C[C@H](F)C[C@H]2C(=O)N[C@@H](c2ccccc2)c2ccc(C(C)C)c(F)n2)c(=O)[nH]c1=O` (relative stereo) [Compound 778, (2S,4R)-4-fluoro-N-[(R*)-[6-fluoro-5-(propan-2-yl)pyridin-2-yl](phenyl)methyl]-1-[2-(5-methyl-2,4-dioxo-1,2,3,4-tetrahydropyrimidin-1-yl)acetyl]pyrrolidine-2-carboxamide] it is 381 nM.
As for `CC(=O)N1C[C@H](F)C[C@H]1C(=O)N[C@@H](c1cccc(-c2nnc[nH]2)c1)c1ccc(C(C)C)c(F)n1` (single isomer, unassigned) [Compound 688, (2S,4R)—N—((S) or (R)-(3-(4H-1,2,4-triazol-3-yl)phenyl)(6-fluoro-5-isopropylpyridin-2-yl)methyl)-1-acetyl-4-fluoropyrrolidine-2-carboxamide], the figure is 106 nM; as for `CC(C)c1ccc([C@@H](NC(=O)[C@@H]2C[C@@H](F)CN2C(=O)CCc2cccnc2)c2ccccc2)cc1` [Compound 66, (2S,4R)-4-fluoro-N-[(S)-phenyl[4-(propan-2-yl)phenyl]methyl]-1-[3-(pyridin-3-yl)propanoyl]pyrrolidine-2-carboxamide], 82 nM; as for `CC(=O)N1C[C@H]2C[C@@]2(C(=O)N2C[C@H](F)C[C@H]2C(=O)N[C@@H](c2ccccc2)c2ccc(C(C)C)cc2)C1` [Compound 148, (2S,4R)-1-[(1S,5S)-3-acetyl-3-azabicyclo[3.1.0]hexane-1-carbonyl]-4-fluoro-N-[(S)-phenyl[4-(propan-2-yl)phenyl]methyl]pyrrolidine-2-carboxamide], 344 nM.
As for `CC(=O)N1[C@@H]2C[C@@H]2C[C@H]1C(=O)N[C@@H](c1ccccc1)c1ccc(C(C)C)cc1` [Compound 200, (1R,3S,5R)-2-acetyl-N-[(S)-phenyl[4-(propan-2-yl)phenyl]methyl]-2-azabicyclo[3.1.0]hexane-3-carboxamide], the figure is 4420 nM; as for `CC(C)c1ccc([C@@H](NC(=O)[C@@H]2C[C@@H](F)CN2C(=O)c2cc3n(n2)CCCNC3=O)c2ccccc2)cc1` [Compound 131, (2S,4R)-4-fluoro-1-{4-oxo-4H,5H,6H,7H,8H-pyrazolo[1,5-a][1,4]diazepine-2-carbonyl}-N-[(S)-phenyl[4-(propan-2-yl)phenyl]methyl]pyrrolidine-2-carboxamide], 563 nM.
As for `CC(=O)N1CCC[C@H](C(=O)N2C[C@H](F)C[C@H]2C(=O)N[C@@H](c2ccccc2)c2ccc(C(C)C)cc2)C1` [Compound 153, (2S,4R)-1-[(3S)-1-acetylpiperidine-3-carbonyl]-4-fluoro-N-[(S)-phenyl[4-(propan-2-yl)phenyl]methyl]pyrrolidine-2-carboxamide], the IC50 turned out to be 412 nM.
The figure for `CC(Oc1cccnc1)C(=O)N1C[C@H](F)C[C@H]1C(=O)N[C@@H](c1ccccc1)c1ccc(C(C)C)cc1` (stereo partly drawn) [Compound 124, (2S,4R)-4-fluoro-N-[(S)-phenyl[4-(propan-2-yl)phenyl]methyl]-1-[2-(pyridin-3-yloxy)propanoyl]pyrrolidine-2-carboxamide] is 78 nM; for `CC(Cn1cccn1)C(=O)N1C[C@H](F)C[C@H]1C(=O)N[C@@H](c1ccccc1)c1ccc(C(C)C)cc1` (stereo partly drawn) [Compound 80, (2S,4R)-4-fluoro-1-[2-methyl-3-(1H-pyrazol-1-yl)propanoyl]-N-[(S)-phenyl[4-(propan-2-yl)phenyl]methyl]pyrrolidine-2-carboxamide] it is 318 nM; for `CC(C)c1ccc([C@@H](NC(=O)[C@@H]2CCC3(CC3)N2C(=O)Cc2cnn[nH]2)c2ccccc2)cc1F` [Compound 341, (5S)-N-[(S)-[3-fluoro-4-(propan-2-yl)phenyl](phenyl)methyl]-4-[2-(1H-1,2,3-triazol-5-yl)acetyl]-4-azaspiro[2.4]heptane-5-carboxamide] it is 780 nM.
The figure for `CC(C)c1ccc([C@@H](NC(=O)[C@@H]2CCCN2C(=O)CO)c2ccccc2)cc1` [Compound 211, (2S)-1-(2-hydroxyacetyl)-N-[(S)-phenyl[4-(propan-2-yl)phenyl]methyl]pyrrolidine-2-carboxamide] is 469 nM; for `CC(=O)N1C[C@H]2CC[C@@H](C1)[C@@H]2C(=O)N1C[C@H](F)C[C@H]1C(=O)N[C@@H](c1ccccc1)c1ccc(C(C)C)cc1` [Compound 173, (2S,4R)-1-[(1R,5S,8S)-3-acetyl-3-azabicyclo[3.2.1]octane-8-carbonyl]-4-fluoro-N-[(S)-phenyl[4-(propan-2-yl)phenyl]methyl]pyrrolidine-2-carboxamide] it is 844 nM.
With `O=C(NC(c1ccc(C2CC2)c(F)c1)c1cccc2[nH]c(=O)[nH]c12)[C@@H]1CCCN1C(=O)Cc1cnn[nH]1` (single isomer, unassigned) [Compound 648], the IC50 worked out at 616 nM.

Values taken from patent US11814367B2, “Inhibitors of glycogen synthase 1 (GYS1) and methods of use thereof” (Maze Therapeutics, Inc., priority 2021, dated 2023).
